Values after ≈ are worked out from the molar mass of the structure shown. Read-outs that look alike come from different tables or passages of the source.
Key:
A. fumigatus [1] = assay: MIC by tube dilution method; assay type: cell-based; conditions: 7 days at 25 °C
E. coli [2] = assay: Minimum bactericidal concentration (MBC); assay type: cell-based; conditions: for MBC: Escherichia coli
K. pneumonia [3] = assay: MIC by tube dilution method; assay type: cell-based; conditions: Klebsiella pneumoniae, 24 h, 24 h at 37 °C, read-out: MIC
E. coli [4] = assay: MIC by tube dilution method; assay type: cell-based; conditions: 24 h at 37 °C
A. niger [5] = assay: Minimum fungicidal concentration (MFC); assay type: cell-based; conditions: for MFC: Aspergillus niger, read-out: MBC/MFC
A. fumigatus [6] = assay: Minimum fungicidal concentration (MFC); assay type: cell-based; conditions: for MFC: Aspergillus fumigatus, read-out: MBC/MFC
B. subtilis [7] = assay: MIC by tube dilution method; assay type: cell-based; conditions: 24 h at 37 °C
K. pneumonia [8] = assay: Minimum bactericidal concentration (MBC); assay type: cell-based; conditions: for MBC: Klebsiella pneumoniae
A. niger [9] = assay: MIC by tube dilution method; assay type: cell-based; conditions: 7 days at 25 °C
S. aureus [10] = assay: Minimum bactericidal concentration (MBC); assay type: cell-based; conditions: for MBC: Staphylococcus aureus
S. enterica [11] = assay: MIC by tube dilution method; assay type: cell-based; conditions: 24 h at 37 °C
S. aureus [12] = assay: MIC by tube dilution method; assay type: cell-based; conditions: 24 h at 37 °C
S. enterica [13] = assay: Minimum bactericidal concentration (MBC); assay type: cell-based; conditions: Salmonella enterica, read-out: MBC/MFC
Description: After MIC assessment, the indole derivatives (DS1–DS21), were additionally evaluated for MBC and MFC values. […] The 10–15 ml of nutrient agar and Sabouraud dextrose agar was added to the petri plates for bacterial and fungal samples respectively with gentle shaking of plates in order to mix the culture throughout the media. Allowed the media to solidify. The petri plates were then incubated for the predefined time and temperature as referenced already for bacterial and fungal cultures respectively. The plates were then investigated visually for the development of microbial growth. The MBC and MFC were stated as the minimum concentration of the compounds in aliquots showing no visual growth after incubation.

B. subtilis [14] = assay: Minimum bactericidal concentration (MBC); assay type: cell-based; conditions: for MBC: Bacillus subtilis
[15] = Aspergillus fumigatus, 168 h, read-out: MIC
[16] = Escherichia coli, 24 h, read-out: MIC
[17] = Bacillus subtilis, read-out: MIC
[18] = Aspergillus niger, 168 h, read-out: MIC
[19] = Salmonella enterica, 24 h, read-out: MIC
[20] = Staphylococcus aureus, read-out: MIC

Structure (SMILES) | MIC (A. fumigatus [1]; [15]) [µg/mL] | MBC (E. coli [2]) [µg/mL] | MIC (K. pneumonia [3]) [µg/mL] | MIC (E. coli [4]; [16]) [µg/mL] | MFC (A. niger [5]) [µg/mL] | MFC (A. fumigatus [6]) [µg/mL] | MIC (B. subtilis [7]; [17]) [µg/mL] | MBC (K. pneumonia [8]) [µg/mL] | MIC (A. niger [9]; [18]) [µg/mL] | melting point [°C] | MBC (S. aureus [10]) [µg/mL] | MIC (S. enterica [11]; [19]) [µg/mL] | MIC (S. aureus [12]; [20]) [µg/mL] | MBC (S. enterica [13]; S. enterica, MBC) [µg/mL] | MBC (B. subtilis [14]) [µg/mL] | also measured
C/C(=N/c1ccc(S(=O)(=O)Nc2ccccn2)cc1)c1ccc(/N=N\c2c[nH]c3ccccc23)cc1 [DS-11, 4-((Z)-(1-(4-((Z)-(1H-Indol-3-yl)diazenyl)phenyl)ethylidene)amino)-N-(pyridin-2-yl)benzenesulfonamide] | 62.5 (≈ 126 µM) | 62.5 (≈ 126 µM) | 15.6 (≈ 31.6 µM) | 3.9 (≈ 7.89 µM) | 125 (≈ 253 µM) | 125 (≈ 253 µM) | 31.2 (≈ 63.2 µM) | 31.2 (≈ 63.2 µM) | 125 (≈ 253 µM) | 135 to 140 | 62.5 (≈ 126 µM) | 62.5 (≈ 126 µM) | 31.2 (≈ 63.2 µM) | 125 (≈ 253 µM) | 125 (≈ 253 µM) | –
C/C(=N/c1ccc(Cl)cc1[N+](=O)[O-])c1ccc(/N=N\c2c[nH]c3ccccc23)cc1 [DS-13, (Z)-N-(1-(4-((Z)-(1H-Indol-3-yl)diazenyl)phenyl)ethylidene)-4-chloro-2-nitroaniline] | 31.2 (≈ 74.8 µM) | 3.9 to 7.81 (≈ 9.33 to 18.7 µM) | 3.9 (≈ 9.33 µM) | 7.81 (≈ 18.7 µM) | 125 (≈ 299 µM) | 125 (≈ 299 µM) | 62.5 (≈ 150 µM) | 15.6 (≈ 37.4 µM) | 62.5 (≈ 150 µM) | – | 62.5 (≈ 150 µM) | 62.5 (≈ 150 µM) | 62.5 (≈ 150 µM) | – | 125 (≈ 299 µM) | MBC (S. enterica [13]): 62.5 µg/mL (≈ 150 µM)
CC(=O)NS(=O)(=O)c1ccc(/N=C(/C)c2ccc(/N=N\c3c[nH]c4ccc([N+](=O)[O-])cc34)cc2)cc1 [DS-15, N-((4-((Z)-(1-(4-((Z)-(5-Nitro-1H-indol-3-yl)diazenyl)phenyl)ethylidene)amino)phenyl)sulfonyl)acetamide] | 62.5 (≈ 124 µM) | 125 (≈ 248 µM) | 3.9 (≈ 7.73 µM) | 15.6 (≈ 31 µM) | 125 (≈ 248 µM) | 125 (≈ 248 µM) | 31.2 (≈ 61.9 µM) | 31.2 (≈ 61.9 µM) | 125 (≈ 248 µM) | 110 to 115 | 31.2 (≈ 61.9 µM) | 31.2 (≈ 61.9 µM) | 125 (≈ 248 µM) | 31.2 (≈ 61.9 µM) | 62.5 (≈ 124 µM) | –
C/C(=N/c1ccc(F)cc1)c1ccc(/N=N\c2c[nH]c3ccc([N+](=O)[O-])cc23)cc1 [DS-16, (Z)-4-Fluoro-N-(1-(4-((Z)-(5-nitro-1H-indol-3-yl)diazenyl)phenyl)ethylidene)aniline] | 31.2 (≈ 77.9 µM) | 62.5 (≈ 156 µM) | 7.81 (≈ 19.5 µM) | 15.6 (≈ 38.9 µM) | 125 (≈ 311 µM) | 125 (≈ 311 µM) | 31.2 (≈ 77.9 µM) | 31.2 (≈ 77.9 µM) | 62.5 (≈ 156 µM) | 150 to 152 | 125 (≈ 311 µM) | 62.5 (≈ 156 µM) | 62.5 (≈ 156 µM) | 62.5 (≈ 156 µM) | 125 (≈ 311 µM) | –
C/C(=N/c1ncccn1)c1ccc(/N=N\c2c[nH]c3ccccc23)cc1 [DS-17, (Z)-N-(1-(4-((Z)-(1H-Indol-3-yl)diazenyl)phenyl)ethylidene)pyrimidin-2-amine] | 31.2 (≈ 91.8 µM) | 15.6 (≈ 45.9 µM) | 7.81 (≈ 22.9 µM) | 3.9 (≈ 11.5 µM) | 125 (≈ 367 µM) | 125 (≈ 367 µM) | 125 (≈ 367 µM) | 15.6 (≈ 45.9 µM) | 62.5 (≈ 184 µM) | 275 to 280 | 62.5 (≈ 184 µM) | 62.5 (≈ 184 µM) | 62.5 (≈ 184 µM) | 62.5 (≈ 184 µM) | 62.5 (≈ 184 µM) | –
C/C(=N/c1ccc(S(=O)(=O)Nc2ncccn2)cc1)c1ccc(/N=N\c2c[nH]c3ccccc23)cc1 [DS-19, 4-((Z)-(1-(4-((Z)-(1H-Indol-3-yl)diazenyl)phenyl)ethylidene)amino)-N-(pyrimidin-2-yl) benzenesulfonamide] | – | – | – | – | – | – | – | – | – | – | – | – | – | – | – | MIC (A. fumigatus [1]): 31.25 µg/mL (≈ 63.1 µM); MBC/MFC (E. coli [2]): 62.5 µg/mL (≈ 126 µM); MIC (E. coli [4]): 7.81 µg/mL (≈ 15.8 µM); MBC/MFC (A. niger [5]): 125 µg/mL (≈ 252 µM); MBC/MFC (A. fumigatus [6]): 125 µg/mL (≈ 252 µM); MIC (B. subtilis [7]): 31.25 µg/mL (≈ 63.1 µM); MBC/MFC (K. pneumonia [8]): 15.62 µg/mL (≈ 31.5 µM); MIC (A. niger [9]): 31.25 µg/mL (≈ 63.1 µM); MBC/MFC (S. aureus [10]): 31.25 µg/mL (≈ 63.1 µM); MIC (S. enterica [11]): 62.5 µg/mL (≈ 126 µM); MIC (S. aureus [12]): 31.25 µg/mL (≈ 63.1 µM); MBC/MFC (B. subtilis [14]): 125 µg/mL (≈ 252 µM)
OC(Cn1cncn1)(Cn1cncn1)c1ccc(F)cc1F [FLU, fluconazole, reference compound] | 7.81 (≈ 25.5 µM) | – | – | – | 125 (≈ 408 µM) | 125 (≈ 408 µM) | – | – | 31.2 (≈ 102 µM) | – | – | – | – | – | – | –

Source: PMC6661771, “Indole hybridized diazenyl derivatives: synthesis, antimicrobial activity, cytotoxicity evaluation and docking studies” (BMC Chemistry, 2019)
